This note sets out measurements from PubChem BioAssay AID330 (DTP/NCI, 2004).

Where “and” joins values, the source holds several entries; their conditions need not be identical. Identical values can stand only once. Inconclusive results and toxic doses are left out.

The experiment has as its system P388 leukemia ip, CD2F1 mice, survival T/C. The experiment is described as follows: NCI In Vivo Anticancer Drug Screen. Data for tumor model P388 Leukemia (intraperitoneal) in CD2F1 (CDF1) mice. Particulars: endpoint: median survival time, higher = longer survival. In short, it runs like this: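 Mice carrying the transplanted tumor received test compound or vehicle. Survival was recorded in each group, and the value is the treated-group measurement divided by that of the vehicle-treated control group.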

Setting [1] is: dose: 6.25 mg/kg/injection, schedule: Q01DX005 (ip), vehicle: Klucel (hydroxypropylcellulose) (HPC).
[2] abbreviates: dose: 12.5 mg/kg/injection, schedule: Q01DX005 (ip), vehicle: Klucel (hydroxypropylcellulose) (HPC).
The mark [3] stands for this setting: dose: 25.0 mg/kg/injection, schedule: Q01DX005 (ip), vehicle: Klucel (hydroxypropylcellulose) (HPC).
Where [4] appears, read: dose: 25.0 mg/kg/injection, schedule: Q04DX003 (ip), vehicle: Klucel (hydroxypropylcellulose) (HPC).
[5] abbreviates: dose: 50.0 mg/kg/injection, schedule: Q04DX003 (ip), vehicle: Klucel (hydroxypropylcellulose) (HPC).
The mark [6] stands for this setting: dose: 100.0 mg/kg/injection, schedule: Q04DX003 (ip), vehicle: Klucel (hydroxypropylcellulose) (HPC).
The mark [7] stands for this setting: dose: 400.0 mg/kg/injection, schedule: Q04DX003 (ip), vehicle: Klucel (hydroxypropylcellulose) (HPC).
Setting [8] is: dose: 50.0 mg/kg/injection, schedule: Q01DX009 (ip), vehicle: Klucel (hydroxypropylcellulose) (HPC).
The mark [9] stands for this setting: dose: 100.0 mg/kg/injection, schedule: Q01DX009 (ip), vehicle: Klucel (hydroxypropylcellulose) (HPC).
Where [10] appears, read: dose: 200.0 mg/kg/injection, schedule: Q01DX009 (ip), vehicle: Klucel (hydroxypropylcellulose) (HPC).
[11] abbreviates: dose: 50.0 mg/kg/injection, schedule: Q01DX005 (ip), vehicle: Klucel (hydroxypropylcellulose) (HPC).
[12] abbreviates: dose: 50.0 mg/kg/injection, schedule: Q01DX009 (ip), vehicle: saline with Tween-80.
[13] abbreviates: dose: 100.0 mg/kg/injection, schedule: Q01DX009 (ip), vehicle: saline with Tween-80.
Where [14] appears, read: dose: 50.0 mg/kg/injection, schedule: Q01DX005 (ip), vehicle: saline with Tween-80.
Setting [15] is: dose: 100.0 mg/kg/injection, schedule: Q01DX005 (ip), vehicle: saline with Tween-80.
Where [16] appears, read: dose: 200.0 mg/kg/injection, schedule: Q01DX005 (ip), vehicle: saline with Tween-80.

As for `Nc1ccc2nc[nH]c(=O)c2c1`, the T/C is 96 % of control (dose: 3.0 mg/kg/injection, schedule: Q01DX005 (ip), vehicle: Klucel (hydroxypropylcellulose) (HPC)); 95 % of control under setting [1]; 101 % of control (dose: 12.0 mg/kg/injection, schedule: Q01DX005 (ip), vehicle: Klucel (hydroxypropylcellulose) (HPC)); 100 % of control under setting [2]; 111 % of control under setting [3].
For `COc1cc2c(c(OC)c1OC)C(=O)CCC2`, the T/C reads like this: under setting [4], 100 % of control; under setting [5], 104 % of control; under setting [6], 92 % of control and 93 % of control; under setting [7], 90 % of control.
In the case of `COc1cc(/C=C(\Cc2ccc(OC)c(OCc3ccccc3)c2)[N+](=O)[O-])ccc1OCc1ccccc1`, the T/C is 89 % of control under setting [8], 87 % of control under setting [9] and 88 % of control under setting [10].
As for `COc1cc2ccc3c(c2cc1OC)CN1CCCC1C3` (stereo not drawn), the T/C is 100 % of control under setting [1], 96 % of control under setting [2], 100 % of control under setting [3] and 105 % of control under setting [11].
Consider `C1CCN2CC3CC(CN4CCCC[C@@H]34)[C@@H]2C1`, for which the T/C under setting [3] is 100 % of control.
In the case of `COc1ccc(C(=O)N/N=C(\C)[C@]2(O)Cc3c(O)c4c(c(O)c3[C@@H](OC3CC(N)C(O)C(C)O3)C2)C(=O)c2c(OC)cccc2C4=O)cc1` (stereo partly drawn), the T/C (dose: 0.12 mg/kg/injection, schedule: Q01DX009 (ip), vehicle: water) is 119 % of control; the T/C (dose: 0.5 mg/kg/injection, schedule: Q01DX009 (ip), vehicle: water) is 151 % of control; the T/C (dose: 1.0 mg/kg/injection, schedule: Q01DX009 (ip), vehicle: water) was 158 % of control and 164 % of control; the T/C (dose: 2.0 mg/kg/injection, schedule: Q01DX009 (ip), vehicle: water) was 174 % of control and 190 % of control; the T/C (dose: 4.0 mg/kg/injection, schedule: Q01DX009 (ip), vehicle: water) is 181 % of control and 211 % of control; the T/C (dose: 6.0 mg/kg/injection, schedule: Q04DX003 (ip), vehicle: water) was 112 % of control. Also, the T/C is, setting by setting: (dose: 12.0 mg/kg/injection, schedule: Q04DX003 (ip), vehicle: water) 121 % of control; (dose: 24.0 mg/kg/injection, schedule: Q04DX003 (ip), vehicle: water) 166 % of control; (dose: 48.0 mg/kg/injection, schedule: Q04DX003 (ip), vehicle: water) 118 % of control.
On to `CN1CCC/C1=C\C(=O)c1ccc([N+](=O)[O-])cc1`, for which the T/C is, setting by setting: under setting [6], 107 % of control; (dose: 200.0 mg/kg/injection, schedule: Q04DX003 (ip), vehicle: Klucel (hydroxypropylcellulose) (HPC)) 107 % of control; under setting [7], 93 % of control.
Consider `CN(C=O)CCN(C)C=O`, for which the T/C runs as follows: (dose: 100.0 mg/kg/injection, schedule: Q04DX002 (ip), vehicle: saline) 96 % of control; (dose: 200.0 mg/kg/injection, schedule: Q04DX002 (ip), vehicle: saline) 99 % of control; (dose: 400.0 mg/kg/injection, schedule: Q04DX002 (ip), vehicle: saline) 104 % of control.
`COc1cc2c(c(OC)c1OC)-c1[nH]ncc1CC2`: the T/C reads like this: under setting [4], 100 % of control; under setting [5], 103 % of control; under setting [6], 93 % of control and 94 % of control; under setting [7], 93 % of control.
On to `Cc1ccc(NP(=S)(Nc2ccc(C)cc2C)Nc2ccc(C)cc2C)c(C)c1`, for which the T/C runs as follows: (dose: 60.0 mg/kg/injection, schedule: Q01DX005 (ip), vehicle: Klucel (hydroxypropylcellulose) (HPC)) 97 % of control; (dose: 120.0 mg/kg/injection, schedule: Q01DX005 (ip), vehicle: Klucel (hydroxypropylcellulose) (HPC)) 100 % of control; (dose: 240.0 mg/kg/injection, schedule: Q01DX005 (ip), vehicle: Klucel (hydroxypropylcellulose) (HPC)) 100 % of control.
Regarding `COc1cc(CC(OC)OC)no1`, the T/C by setting is: (dose: 60.0 mg/kg/injection, schedule: Q01DX005 (ip), vehicle: saline with Tween-80) 102 % of control; (dose: 120.0 mg/kg/injection, schedule: Q01DX005 (ip), vehicle: saline with Tween-80) 103 % of control; (dose: 240.0 mg/kg/injection, schedule: Q01DX005 (ip), vehicle: saline with Tween-80) 102 % of control.
With `COC(=O)c1ccc(Nc2cn[nH]n2)cc1`, the T/C reads like this: under setting [11], 101 % of control; (dose: 100.0 mg/kg/injection, schedule: Q01DX005 (ip), vehicle: Klucel (hydroxypropylcellulose) (HPC)) 100 % of control; (dose: 200.0 mg/kg/injection, schedule: Q01DX005 (ip), vehicle: Klucel (hydroxypropylcellulose) (HPC)) 98 % of control.
As to `O=C(Oc1cc(Cl)ccc1Cl)c1ccccc1`, the T/C (dose: 12.5 mg/kg/injection, schedule: Q01DX009 (ip), vehicle: saline with Tween-80) was 109 % of control and 96 % of control; the T/C (dose: 25.0 mg/kg/injection, schedule: Q01DX009 (ip), vehicle: saline with Tween-80) is 100 % of control and 98 % of control; the T/C under setting [12] was 100 % of control and 102 % of control; the T/C under setting [13] was 102 % of control and 91 % of control.
For `O=C1OC(CCc2ccccc2O)c2ccccc21` (stereo not drawn), the T/C is, setting by setting: under setting [14], 89 % of control; under setting [15], 99 % of control; under setting [16], 93 % of control.
On to `CCN(CC)CCNC(=O)Cc1cccc2c(=O)cc(-c3ccccc3)oc12`, for which the T/C (dose: 50.0 mg/kg/injection, schedule: Q01DX009 (ip), vehicle: saline) was 108 % of control; the T/C (dose: 100.0 mg/kg/injection, schedule: Q01DX009 (ip), vehicle: saline) is 99 % of control; the T/C (dose: 200.0 mg/kg/injection, schedule: Q01DX009 (ip), vehicle: saline) was 97 % of control.
For `CCOC(=O)C1CC1c1c(C)c2cc3[nH]c(cc4nc(cc5nc(cc1[nH]2)C(C)=C5CCC(=O)OC)C(CCC(=O)OC)=C4C)c(C)c3C1CC1C(=O)OCC` (stereo not drawn), the T/C under setting [14] was 93 % of control and the T/C under setting [15] was 86 % of control.
`C=C1C(=O)C23CC1CCC2C12COC(OC(=O)CCCCCCCCCCC)C1C(C)(C)C(O)CC2OC3=O` (stereo not drawn): the T/C is 103 % of control (dose: 7.5 mg/kg/injection, schedule: Q01DX009 (ip), vehicle: saline with Tween-80); 95 % of control (dose: 15.0 mg/kg/injection, schedule: Q01DX009 (ip), vehicle: saline with Tween-80); 103 % of control (dose: 30.0 mg/kg/injection, schedule: Q01DX009 (ip), vehicle: saline with Tween-80); 103 % of control (dose: 60.0 mg/kg/injection, schedule: Q01DX009 (ip), vehicle: saline with Tween-80).
Regarding `CCOC(=O)C(C)(C)c1nc[nH]c1[N+](=O)[O-]`, the T/C runs as follows: (dose: 12.5 mg/kg/injection, schedule: Q04DX003 (ip), vehicle: saline with Tween-80) 100 % of control; (dose: 25.0 mg/kg/injection, schedule: Q04DX003 (ip), vehicle: saline with Tween-80) 104 % of control; (dose: 50.0 mg/kg/injection, schedule: Q04DX003 (ip), vehicle: saline with Tween-80) 100 % of control; (dose: 200.0 mg/kg/injection, schedule: Q04DX003 (ip), vehicle: saline with Tween-80) 98 % of control; (dose: 400.0 mg/kg/injection, schedule: Q04DX003 (ip), vehicle: saline with Tween-80) 101 % of control.
Take `C1CCSCCCCCSCCCCCSCCCCCSCC1`: the T/C is, setting by setting: under setting [8], 97 % of control; under setting [9], 96 % of control; under setting [10], 94 % of control.
As for `CCC(C(=O)O)C(=O)O.[NH2-].[NH2-].[Pt+2]`, the T/C was 152 % of control (dose: 50.0 mg/kg/injection, schedule: Q01DX001 (ip), vehicle: saline); 175 % of control (dose: 100.0 mg/kg/injection, schedule: Q01DX001 (ip), vehicle: saline); 189 % of control and 205 % of control (dose: 200.0 mg/kg/injection, schedule: Q01DX001 (ip), vehicle: saline).
Consider `O=C1C(CCl)(CCl)CCC12CNC(Cl)(Cl)C2` (stereo not drawn), for which the T/C is 97 % of control under setting [14], 97 % of control under setting [15] and 102 % of control under setting [16].
Take `CCOC(=O)Cc1ccnc(C)c1`: the T/C by setting is: under setting [12], 90 % of control; under setting [13], 90 % of control; (dose: 200.0 mg/kg/injection, schedule: Q01DX009 (ip), vehicle: saline with Tween-80) 100 % of control.
